The values that follow come from patent US7067633B2, “Targeting cellular entry, cell survival, and pathogenicity by dynein light chain 1/PIN in human cells” (Board of Regents, The University of Texas System, priority 2003, dated 2006).

The subject of one test is pS2 gene chromatin. Put plainly: Chromatin immunoprecipitation (ChIP), pS2 promoter. In kind it is cell-based, human. Conditions: DLC1 overexpression in MCF-7/DLC1 cells. The text has this: FIG. 14A: Characterization of MCF-7 cells expressing T7-DLC1 under a tet-inducible promoter. Time and dose dependent upregulation of Dox-mediated T7-DLC1 expression. FIG. 14B: DLC1 deregulation potentiates stimulation of Bcl-2 by E2 and by Tam. […] FIG. 14C: DLC1 upregulation suppress Tam ability to inhibit E2-mediated ER transactivation. MCF-7/DLC1 cells were transfected with ERE-luc. […] FIG. 14D: DLC1 deregulation potentiated E2-mediated stimulation of ERE-luc activity in Ishikawa and MCF-7/TAMR1 cells. […] FIG. 14E: Recruitment of DLC1 and ERá to the pS2 promoter chromatin. MCF-7/DLC1 cells were treated with or without Dox for 24 and then with E2 (10^−9M) for 1 h. Chromatin lysates were immunoprecipitated with anti-ER-á or anti-T7 (to detect T7-DLC1) antibodies. Upper panels show the PCR analysis of 304 bp pS2 promoter fragment associated with ER or T7-DLC1.
To delineate the significance of the DLC1 in the modulation of ER transactivation, the effect of T7-DLC1 deregulation on the recruitment of ER to the ER-target pS2 gene promoter chromatin using a chromatin immunoprecipitation (ChIP) assay with anti-ERα or anti-T7 antibodies was examined. […] When the above ChIP studies were repeated using T7 antibody to isolate T7-DLC1, it was observed that both basal and ligand-activated DLC1 were also recruited to pS2 gene chromatin (FIG. 14E). […]

Test [1] relates to ZR75 cells. Put plainly: Cell cycle progression by FACS analysis of serum-starved clones. The test is classed as cell-based, human. Conditions: serum-starved stable clones. On the procedure:
FIGS. 5A–5C—Requirement of DLC1/PIN and Pak1 interaction in cell proliferation and survival. FIG. 5A: Equal number of cells ZR75R stable cells expressing DLC1/PIN wild type or DLC1/PIN^del88-89 mutant were plated and cell proliferation was determined by trypsinizing and counting cells using a coulter counter. Each colne was plated in triplicate and experiment was repeated twice with similar results. FIG. 5B: Cell cycle progression of DLC1/PIN wild type or mutant clones was analyzed by FACS analysis. […] For example, a smooth nuclear membrane was scored as nonapoptotic, as opposed to membrane blebbing or rupture, which was scored as apoptotic. Nuclei committed to enter mitosis were not scored in either of these groups because they were easily identified for their specific “pulverized” pattern of Lamin A/C staining. Ten randomly selected fields were analyzed for each condition. […]
DLC1/PIN regulation of cell growth and survival. […] After 10 h, apoptosis was quantitated by scoring the integrity of the nuclear membrane in cells expressing both RFP and myc tags to detect DLC/DLC1/PIN and Pak1 respectively (FIG. 5D).
For orientation: A flow cytometer gives signals particle by particle.

Test [2] concerns ZR75 cells. Put plainly: Tumorigenicity of stably expressing ZR75 cells in nude mice. The settings on record: 5×10^6 cells, no exogenous estradiol. In kind it is in vivo. On the procedure:
FIGS. 6A–6E—DLC1/PIN overexpression potentiates anchorage-independent growth and promotes tumorigenesis. FIG. 6A: Effect DLC1/PIN expression on anchorage-independent growth of ZR75 cells. The anchorage-independent growth potential of DLC1/PIN-expressing clones was measured by the ability of the cells to form colonies on soft agar. […] Error bars represent standard error of mean. FIG. 6B: Western blot analysis of the expression of DLC1/PIN and Pak1 in lysates from cells derived from MCF10AT model system. […] FIG. 6C: Nude mice were injected with 5×10^6 cells stably expressing pcDNA or wild type DLC1/PIN (clone#2) or mutant DLC1/PIN^del88-89 and tumor growth was measured at weekly intervals. […] Tumor growth was only observed in cells expressing wild type DLC1/PIN but not detected in mutant expressing cells. FIG. 6E: Morphology of tumor and expression of T7-DLC1/PIN in DLC1/PIN-induced tumors as measured by H&E and anti T7 staining respectively.
Cell proliferation, soft-agar, and tumorigenicity assays. […] For xenograft studies, 5×10^6 cells were implanted subcutaneously into mammary fat-pads of 10 nude mice, as previously described (Bagheri et al., 2001), and allowed to grow for 20 weeks; tumor size was then measured. […]

Regarding `CC/C(=C(\c1ccccc1)c1ccc(OCCN(C)C)cc1)c1ccccc1` [tamoxifen], the “ER interaction with the pS2 gene chromatin” value with pS2 gene chromatin is given as “enhanced ER interaction”.

For “DLC1/PIN^del 88-89: DLC1/PIN mutant in which Ser88 and amino acid 89 were deleted”, in the test on ZR75 cells [1], the cell cycle distribution entry is given as “significant increase in the cells in pre-Go phase”. The tumorigenic potential result in the test with ZR75 cells [2] was “did not exhibited any tumorigenic potential”.
